pIC50, pKi: −log10 of the molar value. Like-named read-outs stand apart in the source and are kept apart here.
What was measured:
in vitro = conditions: monkey
SARS-CoV-2 [1] = test: microbe, parasite or virus in culture; type: cell-based, SARS-CoV-2 B1.1 lineage; conditions: for pIC50: Severe acute respiratory syndrome coronavirus 2, Vero C1008, 72 h, read-out: SARS-CoV-2 IC50
[2] = set-up: method as in PMID 34116325; conditions: cited from earlier work
[3] = mice, i.p.; cited from earlier work
[4] = set-up: method as in PMID 29194347, PMID 37238706; conditions: cited from earlier work
[5] = microsomes and hepatocytes of different species; cited from earlier work
[6] = non-human primates; cited from earlier work
Dengue virus type 2 = test: Activity against Dengue virus type 2 (unpublished results); type: cell-based
[7] = target: α4β2 subtype of the nicotinic receptor; set-up: method as in PMID 12088062; conditions: cited from earlier work
SARS-CoV-2 [8] = test system: SARS-CoV-2; set-up: method as in PMID 37367224; conditions: lung epithelium cell line; cited from earlier work
SARS-CoV-2 [9] = conditions: reference compound; cited from earlier work
SARS-CoV-2 [10] = conditions: read-out: IC50 against SARS-CoV-2; cited from earlier work

SMILES | CC50 (in vitro) [µM] | pIC50 (SARS-CoV-2 [1]) | SAR analysis summary of anti-SARS-CoV-2 activity (SARS-CoV-2 [1]) | also measured
CCN(CC)CCCC(C)Nc1ccnc2cc(Cl)ccc12 (stereo not shown) [CQ, chloroquine, reference compound] | 96.3 | 5.07 | – | –
Clc1ccc(Nc2cc3nc4ccccc4n(-c4ccc(Cl)cc4)c-3cc2=NCC2CCCN3CCCCC23)cc1 (stereo not shown) [Compound 1] | 3.14 | < 5.70 | Inactive/ Cytotoxic | –
Cc1ccc(Nc2cc3nc4ccccc4n(-c4ccc(C)cc4)c-3cc2=NCC2CCCN3CCCCC23)cc1 (stereo not shown) [Compound 2] | 2.81 | 5.82 | – | –
c1ccc(Nc2cc3nc4ccccc4n(-c4ccccc4)c-3cc2=NCCCCC23CCCCN2CCCC3)cc1 [Compound 3] | 10.5 | 5.40 | – | –
Fc1ccc(Nc2cc3nc4ccccc4n(-c4ccc(F)cc4)c-3cc2=NCCCCC23CCCCN2CCCC3)cc1 [Compound 4] | 2.19 | < 6.00 | Inactive/ Cytotoxic | –
c1ccc(Nc2cc3nc4ccccc4n(-c4ccccc4)c-3cc2=NCC23CCCN2CCC3)cc1 [Compound 5] | 3.2 | < 5.70 | Inactive/ Cytotoxic | –
Clc1ccc(Nc2cc3nc4ccccc4n(-c4ccc(Cl)cc4)c-3cc2=NCC23CCCN2CCC3)cc1 [Compound 6] | 5.58 | < 5.52 | Inactive/ Cytotoxic | –
CN1CCN(CCN=c2cc3n(-c4ccc(Cl)cc4)c4ccccc4nc-3cc2Nc2cccnc2)CC1 [Compound 7] | 2.62 | – | Inactive/ Cytotoxic | inhibition at 1 µM (SARS-CoV-2 [1]; Severe acute respiratory syndrome coronavirus 2, Vero C1008, read-out: % inhibition of viral replication): 20.5%; water solubility [2]: highly water soluble
Clc1ccc(-n2c3cc(=NCCN4CCOCC4)c(Nc4cccnc4)cc-3nc3ccccc32)cc1 [Compound 8] | 1.74 | – | Inactive/ Cytotoxic | –
Clc1ccc(-n2c3cc(=NCCCN4CCCCC4)c(Nc4cccnc4)cc-3nc3ccccc32)cc1 [Compound 9] | 1.88 | – | Inactive/ Cytotoxic | –
Clc1ccc2c(NC[C@@H]3CCCN4CCCC[C@H]34)ccnc2c1 [Compound 10] | 44 | 5.66 | – | maximum tolerated dose, MTD [3]: greater than 100 mg/Kg; oral bioavailability [4]: excellent; volume of distribution [4]: high; metabolic stability [5]: good
Clc1ccc2c(NCC34CCCN3CCC4)ccnc2c1 [Compound 11] | 74.5 | 5.43 | – | oral MTD [6]: 50 mg/kg/day; maximum tolerated dose, MTD [3]: greater than 100 mg/Kg; oral bioavailability [4]: excellent; volume of distribution [4]: high; metabolic stability [5]: good
CCN(CC)CCCn1c(Cc2ccccc2)nc2cc(/C(C)=N\NC(N)=O)ccc21 [Compound 12] | > 100 | < 4.00 | Inactive/ Cytotoxic | –
CCN(CC)CCCn1c(Cc2ccccc2)nc2cc(C(C)=NNC(N)=S)ccc21 [Compound 13] | 96.1 | 4.70 | – | –
CC(=NNC(N)=S)c1ccc2c(c1)nc(Cc1ccccc1)n2C[C@@H]1CCCN2CCCC[C@H]12 [Compound 14, 2-(1-{2-Benzyl-1-[((1S,9aR)-octahydro-2H-quinolizin-1-yl)methyl]-1H-benzo[d]imidazol-5-yl}-ethylidene)hydrazine-1-carbothioamide] | 70 | 4.91 | – | –
CCN(CC)CCCn1c(Cn2nnc3ccccc32)nc2cc(C(C)=NNC(N)=S)ccc21 [Compound 15, 2-(1-{2-[(1H-Benzo[d][1,2, 3]triazol-1-yl)methyl]-1-[3-(N,N-diethylamino)propyl]-1H-benzo-[d]imidazol-5-yl}ethylidene)hydrazine-1-carbothioamide] | 67.1 | 4.83 | – | –
CCN(CC)CCCn1c(Cn2nnc3ccccc32)nc2cc(Cl)ccc21 [Compound 18] | 107 | 4.55 | – | –
Cc1ccc2c(c1)nc(Cn1nnc3ccccc31)n2CC[C@@H]1CCCN2CCCC[C@H]12 [Compound 19] | 76.3 | 4.82 | – | –
Clc1ccc2c(c1)nc(Cn1nnc3ccccc31)n2CC[C@@H]1CCCN2CCCC[C@H]12 [Compound 20] | 19.4 | 5.16 | – | –
Oc1ccc(-n2nc3ccc(C(F)(F)F)cc3n2)cc1 [Compound 21] | 25.4 | < 4.70 | – | activity against SARS-CoV-2 (SARS-CoV-2 [1]): no activity; pIC50 (Dengue virus type 2): 4.77
CN1CCCC1=CN=Nc1cccc(Br)c1 [Compound 22] | 26.8 | < 4.70 | – | activity against SARS-CoV-2 (SARS-CoV-2 [1]): no activity; pIC50 (Dengue virus type 2): 4.62
O=c1cccc2n1CC1CC2CN(C(=S)NC2CCCCC2)C1 (stereo not shown) [Compound 23] | > 100 | 4.02 | – | pKi [7]: 5.64
CC(=O)Oc1ccccc1C(=O)Oc1ccc(-c2cc(=S)ss2)cc1 [Compound 24] | 32.9 | < 5.00 | – | activity against SARS-CoV-2 (SARS-CoV-2 [1]): no activity
CC(=O)/C=C(/C)Nc1cccc2c3c([nH]c12)CCCC3 [Compound 25] | > 100 | 4.05 | – | –
CC(C)/N=c1\cc2n(-c3ccc(Cl)cc3)c3ccccc3nc-2cc1Nc1ccc(Cl)cc1 [clofazimine] | – | – | – | reduction in viral RNA load (SARS-CoV-2 [8]): 25%; pIC50 (SARS-CoV-2 [9]): 6.51
CCN(CCO)CCCC(C)Nc1ccnc2cc(Cl)ccc12 (stereo not shown) [hydroxychloroquine] | – | – | – | pIC50 (SARS-CoV-2 [10]): 6.14

From publication PMC11676875, “In Vitro Screening of an In-House Library of Structurally Distinct Chemotypes Towards the Identification of Novel SARS-CoV-2 Inhibitors” (Pharmaceuticals, 2024)
